Data: patent publication US8288364B2, “Botanically derived composition and a process thereof” (Indus Biotech Private Limited, priority 2008, dated 2012)

Tests used:
[1] = Body composition (anabolic/androgenic activity) in castrated immature rats, 4 weeks of treatment; type: in vivo, Wistar rats
Description: Immature male Wistar rats weighing about 55 gm (±5 gm) were selected for the study. These rats were anesthetized by anesthetic ether and castrated. After 4 weeks of treatment, animals were sacrificed and the seminal vesicles, the ventral prostate, and the muscle levator ani carefully dissected and weighed. Body weight of the animals was registered at the beginning and at the end of the experiment. Increase in weight of seminal vesicles and ventral prostate indicates androgenic activity, whereas increase in weight of levator ani muscles was considered to indicate anabolic activity.

[2] = test system: Diabetes Induced with Alloxan; assay: Blood sugar levels in early stages of diabetes induced with alloxan; type: in vivo, Wistar rats; conditions: alloxan-diabetic rats; for Blood sugar level, 0 day: day 0; for Blood sugar level, 0 day / Blood sugar level, 15 day / Blood sugar level, 30 day: doses: test compound 60 mg/kg, fenugreek seed powder 2 g/kg, crude alcohol extract 1 g/kg, pioglitazone 5 mg/kg; for Change in BSL (%): day 0 to day 30, numbers are printed as DECREASE, doses as in the row (60 mg/kg, 2 g/kg, 1 g/kg, 5 mg/kg); for Blood sugar level, 15 day: day 15 of treatment; for Blood sugar level, 30 day: day 30 of treatment
Experimental: (§1) Male Wistar rats were injected with alloxan monohydrate (160 mg/kg i.p.) to induce diabetes. After 48 hours of injection blood glucose levels were determined using glucose estimation kits. Animals with blood glucose levels above 300 mg/dl were selected and divided into four groups of 6 rats in each group.
Group 1: Non-Diabetic Control
Group 2: Diabetes Control
Group 3: Test Compound (60 mg/kg)
Group 4: Pioglitazone (Standard Drug) (5 mg/kg)
(§2) The animals were given respective drug solutions in stipulated dose, for 30 days. On the 0th, 15th and 30th day of treatment, the blood sugar levels and body weights were analyzed.
Serum was obtained by centrifuging the blood obtained by retero-orbital blood withdrawal at 7000 rpm at 4° C. for 15 min. The serum obtained was collected for Blood sugar level determinations. The below table provides data on blood glucose levels of various groups.

[3] = Body weight in early stages of diabetes induced with alloxan; type: in vivo, Wistar rats; conditions: alloxan-diabetic rats, test compound 60 mg/kg, pioglitazone 5 mg/kg; for Body weight, 0 day: day 0; for % Change in Body weight: day 0 to day 30, numbers are printed as INCREASE; for Body weight, 15 day: day 15; for Body weight, 30 day: day 30
Experimental: as §1, §2
There was a significant decrease in body weight in diabetic group as compared to non diabetic group. In the test compound treated group the body weight on 0 day was 185.16 & 240.83 on 30 day. […] There was a 29% increase in weight in the animals treated with the test compound that was an excellent result when compared to the 9% decrease in body weight of the untreated diabetic animals. The below table provides the percentage change in body weight of groups treated with respective treatments.

serum testosterone = assay: Serum testosterone by radioimmunoassay in castrated immature rats after four weeks of treatment; type: in vivo, Wistar rats; conditions: daily treatment, 35 mg/kg p.o., RIA
Experimental: In addition, to rule out any possibility of androgenic activity in the increase in body weight and muscle mass, the serum testosterone levels were measured.
Immature male Wistar rats weighing about 55 gm (±5gm) were selected for the study. These rats were anesthetized by anesthetic ether and castrated. After four weeks of treatment, the blood was withdrawn from the rats by retro orbital puncture method and analyzed for serum testosterone, which was measured with the help of radioimmunoassay (RIA) kit.

[4] = Double-blind, placebo-controlled clinical study: body composition (body fat) by bioelectric impedance and hydrostatic weighing; type: in vivo, human; conditions: volunteers, 500 mg supplementation, 8 weeks, resistance training 4 times/week
Experimental: (§3) Subsequently, a double-blind, placebo-controlled study in 49 pre-trained volunteers was conducted to assess the safety and efficacy of the test compound. This 2 month study was conducted with supplementation of 500 mg of the test compound and the volunteers were on resistance training 4 times/week. During this study the effect of the test compound on body composition (fat content) and strength were evaluated.
Body density was analyzed by bioelectric impedance and hydrostatic weighing. Based on these parameters fat free mass was calculated. From the FIG. 5 it is concluded that during the study period of 8 weeks, the test product reduced the body fat by 12%. This is a significant reduction.

[5] = Double-blind, placebo-controlled clinical study: strength (isotonic bench and leg press); type: in vivo, human; conditions: volunteers, 500 mg, 2 month study, weight lifted
Experimental: as §3
Since this product was used to increase muscle mass, the effect of the test compound on the strength of the volunteers was evaluated. This was done by conducting isotonic repetitions of bench and leg press exercises. An increase in strength was determined based on an increase in weight lifted during these two exercises.

3T3-L1 cells = assay: Deoxy-D-Glucose, 2-(1-14C) uptake in 3T3-L1 cells (insulin-like action); type: cell-based
Experimental: This example studies the time and dose dependant uptake of Deoxy-D-Glucose, 2-(1-^14C) uptake in 3T3-L1 cells treated with the test compound. 3T3-L1 cells were cultured (DMEM+FBS) in a 24 well plate and were treated with a 5 μg/ml and a 50 μg/ml dose of the test compound for 10 or 30 min. Cells treated with 100 nM insulin was used as a positive control. Radioactivity (cpm) was measured with TopCount (Packard).

[6] = Levator ani muscle mass in alloxan-diabetic animals; type: in vivo, Wistar rats; conditions: alloxan-diabetic animals on treatment, FIG. 8
Description: A subsequent study was done to evaluate the impact of the increase in weight on the muscle content of the animals.
The levitor ani muscles of these animals were checked for the drugs effect on muscle mass.

| Compound | Blood sugar level, 0 day [2] [mg/dL] | Change in BSL (%) [2] | Blood sugar level, 15 day [2] [mg/dL] | Blood sugar level, 30 day [2] [mg/dL] | Body weight, 0 day [3] [gm] | % Change in Body weight [3] | Body weight, 15 day [3] [gm] | Body weight, 30 day [3] [gm] | also measured |
| --- | --- | --- | --- | --- | --- | --- | --- | --- | --- |
| C[C@]12CC[C@H]3[C@@H](CCC4=CC(=O)CC[C@@]43C)[C@@H]1CC[C@@H]2O [testosterone, reference compound] |  |  |  |  |  |  |  |  | body weight compared with control group ([1]; four weeks, 10 mg s.c biweekly): significant rise |
| CCc1ccc(CCOc2ccc(CC3SC(=O)NC3=O)cc2)nc1 (centres unmarked) [Pioglitazone, reference compound] | 438.66 ± 6.37 | 35.8% DECREASE | 376.33 ± 7.29 | 281 ± 5.92 | 165 ± 5.41 | 25% INCREASE | 198.5 ± 6.45 | 207.83 ± 4.49 |  |
| OCC1O[C@H](OCC2O[C@@H](O[C@@H]3C(CO[C@H]4OC(CO)[C@H](O)C(O)C4O)O[C@@H](O)C(O)C3O)C(O)C(O)[C@@H]2O)C(O)C(O)[C@H]1O (some centres unmarked) [test compound] | 416.5 ± 14.42 | 55% | 294.5 ± 12.22 | 187 ± 9.33 | 185.16 | 29% | 215.83 ± 6.05 | 240.83 | weight of the levator ani muscles (anabolic activity) ([1]; 4 weeks of treatment): significant increase; weights of organs of the male reproductive system (prostate, seminal vesicle and penis); androgenic activity ([1]; 4 weeks, 10 and 35 mg/kg): did not increase; change in body weight ([1]; four-week treatment, 10 mg/kg p.o): did not cause any change; body weight compared with control group ([1]; four-week treatment, 35 mg/kg p.o): significant rise; total serum testosterone levels (serum testosterone): no significant increase; reduction of body fat [4]: 12%; increase in strength compared to placebo, bench press [5]: 100%; increase in strength compared to placebo, leg press [5]: 80%; glucose uptake (3T3-L1 cells; dose of 5 μg/ml, 10 or 30 min): enhanced glucose uptake; Change in BSL (%) ([2]; listed as Test Compound): 55% DECREASE; Body weight, 0 day ([3]; listed as Test Compound): 185.16 ± 6.53 gm; % Change in Body weight ([3]; listed as Test Compound): 29% INCREASE; Body weight, 30 day ([3]; listed as Test Compound): 240.83 ± 6.42 gm; muscle mass (levitor ani muscles) [6]: significant increase |
| Insulin [reference compound] |  |  |  |  |  |  |  |  | stimulation of glucose uptake (3T3-L1 cells; 100 nM insulin, 10 min): 1.74 fold |
